Measured values reported in PubChem BioAssay (NCI).
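Interpolation was linear, between the two tested concentrations surrounding the appropriate level; five concentrations were tested over 48 hours in 96-well plates. At the TGI there is no net growth.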

Columns and labels:
Assay in all cases: growth of human tumour cells (NCI), 48 h
[1] = test system: 786-0 renal
[2] = test system: A498 renal
[3] = test system: A549 NSCLC
[4] = test system: ACHN renal
[5] = test system: CAKI-1 renal
[6] = test system: CCRF-CEM leukemia
[7] = test system: COLO 205 colon
[8] = test system: DLD-1 colon
[9] = test system: DMS 114 small cell lung
[10] = test system: DMS 273 small cell lung
[11] = test system: EKVX NSCLC
[12] = test system: HCC-2998 colon
[13] = test system: HCT-116 colon
[14] = test system: HCT-15 colon
[15] = test system: HL-60(TB) leukemia
[16] = test system: HOP-18 NSCLC
[17] = test system: HOP-62 NSCLC
[18] = test system: HOP-92 NSCLC
[19] = test system: HT29 colon
[20] = test system: IGROV1 ovarian
[21] = test system: K-562 leukemia
[22] = test system: KM12 colon
[23] = test system: KM20L2 colon
[24] = test system: LOX IMVI melanoma
[25] = test system: LXFL 529 NSCLC
[26] = test system: M14 melanoma
[27] = test system: M19-MEL melanoma
[28] = test system: MALME-3M melanoma
[29] = test system: NCI-H226 lung
[30] = test system: NCI-H23 lung
[31] = test system: NCI-H460 lung
[32] = test system: OVCAR-3 ovarian
[33] = test system: OVCAR-4 ovarian
[34] = test system: OVCAR-5 ovarian
[35] = test system: OVCAR-8 ovarian
[36] = test system: RPMI-8226 leukemia
[37] = test system: RXF 393 renal
[38] = test system: RXF-631 renal
[39] = test system: SF-268 CNS
[40] = test system: SF-539 CNS
[41] = test system: SK-MEL-2 melanoma
[42] = test system: SK-MEL-28 melanoma
[43] = test system: SK-MEL-5 melanoma
[44] = test system: SK-OV-3 ovarian
[45] = test system: SN12C renal
[46] = test system: SNB-19 CNS
[47] = test system: SNB-75 CNS
[48] = test system: SNB-78 CNS
[49] = test system: SW-620 colon
[50] = test system: TK-10 renal
[51] = test system: U251 CNS
[52] = test system: UACC-257 melanoma
[53] = test system: UACC-62 melanoma
[54] = test system: UO-31 renal
[55] = test system: XF 498 CNS
[56] = test system: MOLT-4 leukemia
[57] = test system: NCI-H522 lung
[58] = test system: SF-295 CNS
[59] = test system: SR leukemia

## Cc1cc(N(CCC#N)CCC#N)ccc1C=Nc1ccc(C(=O)NN2C(=O)/C(=C/c3ccc(N(CCC#N)CCC#N)cc3)N=C2c2cc([N+](=O)[O-])ccc2Cl)cc1
[1]
  TGI: > 100 µM
[2]
  TGI: > 100 µM
[3]
  TGI: > 100 µM
[4]
  TGI: > 100 µM
[5]
  TGI: > 100 µM
[6]
  TGI: > 100 µM
[7]
  TGI: > 100 µM
[8]
  TGI: > 100 µM
[9]
  TGI: > 100 µM
[10]
  TGI: > 100 µM
[11]
  TGI: > 100 µM
[12]
  TGI: > 100 µM
[13]
  TGI: > 100 µM
[14]
  TGI: > 100 µM
[15]
  TGI: > 100 µM
[16]
  TGI: > 100 µM
[17]
  TGI: > 100 µM
[18]
  TGI: > 100 µM
[19]
  TGI: > 100 µM
[20]
  TGI: > 100 µM
[21]
  TGI: > 100 µM
[22]
  TGI: > 100 µM
[23]
  TGI: > 100 µM
[24]
  TGI: > 100 µM
[25]
  TGI: > 100 µM
[26]
  TGI: > 100 µM
[27]
  TGI: > 100 µM
[28]
  TGI: > 100 µM
[29]
  TGI: > 100 µM
[30]
  TGI: > 100 µM
[31]
  TGI: > 100 µM
[32]
  TGI: > 100 µM
[33]
  TGI: > 100 µM
[34]
  TGI: > 100 µM
[35]
  TGI: > 100 µM
[36]
  TGI: > 100 µM
[37]
  TGI: > 100 µM
[38]
  TGI: > 100 µM
[39]
  TGI: > 100 µM
[40]
  TGI: > 100 µM
[41]
  TGI: > 100 µM
[42]
  TGI: > 100 µM
[43]
  TGI: > 100 µM
[44]
  TGI: > 100 µM
[45]
  TGI: > 100 µM
[46]
  TGI: > 100 µM
[47]
  TGI: > 100 µM
[48]
  TGI: > 100 µM
[49]
  TGI: > 100 µM
[50]
  TGI: > 100 µM
[51]
  TGI: > 100 µM
[52]
  TGI: > 100 µM
[53]
  TGI: > 100 µM
[54]
  TGI: > 100 µM
[55]
  TGI: > 100 µM

## Cc1ccccc1N=NC(C(=O)c1ccccc1)C(=O)c1ccccc1
[1]
  TGI: 78.3 µM
[2]
  TGI: > 100 µM
[3]
  TGI: > 100 µM
[4]
  TGI: > 100 µM
[5]
  TGI: 96.6 µM
[6]
  TGI: 53.9 µM
[7]
  TGI: > 100 µM
[8]
  TGI: > 100 µM
[9]
  TGI: 50.7 µM
[10]
  TGI: 62.3 µM
[11]
  TGI: 88.3 µM
[12]
  TGI: > 100 µM
[13]
  TGI: 54.4 µM
[14]
  TGI: 80.8 µM
[15]
  TGI: 37.9 µM
[17]
  TGI: 70.6 µM
[18]
  TGI: 46.4 µM
[19]
  TGI: > 100 µM
[20]
  TGI: > 100 µM
[21]
  TGI: > 100 µM
[22]
  TGI: > 100 µM
[23]
  TGI: 70.7 µM
[25]
  TGI: > 100 µM
[26]
  TGI: 39.1 µM
[27]
  TGI: 42.5 µM
[28]
  TGI: > 100 µM
[56]
  TGI: 74.3 µM
[29]
  TGI: 32.2 µM
[30]
  TGI: 55.2 µM
[57]
  TGI: 39 µM
[32]
  TGI: > 100 µM
[33]
  TGI: 85.3 µM
[34]
  TGI: 81.2 µM
[35]
  TGI: > 100 µM
[36]
  TGI: 60.9 µM
[38]
  TGI: > 100 µM
[39]
  TGI: > 100 µM
[58]
  TGI: > 100 µM
[40]
  TGI: 81.8 µM
[41]
  TGI: 46.5 µM
[42]
  TGI: > 100 µM
[43]
  TGI: 55.9 µM
[44]
  TGI: 88.4 µM
[45]
  TGI: 58 µM
[46]
  TGI: 85.5 µM
[47]
  TGI: 70.5 µM
[49]
  TGI: > 100 µM
[50]
  TGI: > 100 µM
[51]
  TGI: > 100 µM
[52]
  TGI: > 100 µM
[53]
  TGI: 59.7 µM
[54]
  TGI: 50.2 µM
[55]
  TGI: 55.1 µM

## O=[N+]([O-])c1cccc(C2=NOC3C4CCC(C4)C23)c1 (stereo unspecified)
[1]
  TGI: > 100 µM
[2]
  TGI: > 100 µM
[3]
  TGI: > 100 µM
[4]
  TGI: > 100 µM
[7]
  TGI: > 100 µM
[8]
  TGI: > 100 µM
[9]
  TGI: > 100 µM
[10]
  TGI: > 100 µM
[12]
  TGI: > 100 µM
[13]
  TGI: > 100 µM
[14]
  TGI: > 100 µM
[16]
  TGI: > 100 µM
[17]
  TGI: > 100 µM
[18]
  TGI: > 100 µM
[19]
  TGI: > 100 µM
[20]
  TGI: > 100 µM
[22]
  TGI: > 100 µM
[25]
  TGI: > 100 µM
[26]
  TGI: > 100 µM
[27]
  TGI: > 100 µM
[28]
  TGI: > 100 µM
[56]
  TGI: > 100 µM
[29]
  TGI: > 100 µM
[30]
  TGI: > 100 µM
[31]
  TGI: > 100 µM
[57]
  TGI: > 100 µM
[32]
  TGI: > 100 µM
[33]
  TGI: > 100 µM
[34]
  TGI: > 100 µM
[35]
  TGI: > 100 µM
[36]
  TGI: > 100 µM
[38]
  TGI: > 100 µM
[39]
  TGI: > 100 µM
[58]
  TGI: > 100 µM
[40]
  TGI: > 100 µM
[41]
  TGI: > 100 µM
[42]
  TGI: > 100 µM
[43]
  TGI: > 100 µM
[44]
  TGI: > 100 µM
[45]
  TGI: > 100 µM
[47]
  TGI: > 100 µM
[59]
  TGI: > 100 µM
[49]
  TGI: > 100 µM
[50]
  TGI: > 100 µM
[51]
  TGI: > 100 µM
[52]
  TGI: > 100 µM
[54]
  TGI: > 100 µM

## Nc1n[nH]c(CCc2nc(N)n[nH]2)n1
[1]
  TGI: > 100 µM
[2]
  TGI: > 100 µM
[3]
  TGI: > 100 µM
[4]
  TGI: > 100 µM
[5]
  TGI: > 100 µM
[6]
  TGI: > 100 µM
[7]
  TGI: > 100 µM
[8]
  TGI: > 100 µM
[9]
  TGI: > 100 µM
[10]
  TGI: > 100 µM
[11]
  TGI: > 100 µM
[12]
  TGI: > 100 µM
[13]
  TGI: > 100 µM
[14]
  TGI: > 100 µM
[15]
  TGI: > 100 µM
[17]
  TGI: > 100 µM
[18]
  TGI: > 100 µM
[19]
  TGI: > 100 µM
[20]
  TGI: > 100 µM
[21]
  TGI: > 100 µM
[22]
  TGI: > 100 µM
[23]
  TGI: > 100 µM
[24]
  TGI: > 100 µM
[25]
  TGI: > 100 µM
[26]
  TGI: > 100 µM
[27]
  TGI: > 100 µM
[28]
  TGI: > 100 µM
[56]
  TGI: > 100 µM
[29]
  TGI: > 100 µM
[30]
  TGI: > 100 µM
[31]
  TGI: > 100 µM
[57]
  TGI: > 100 µM
[32]
  TGI: > 100 µM
[33]
  TGI: > 100 µM
[34]
  TGI: > 100 µM
[35]
  TGI: > 100 µM
[36]
  TGI: > 100 µM
[37]
  TGI: > 100 µM
[38]
  TGI: > 100 µM
[39]
  TGI: > 100 µM
[58]
  TGI: > 100 µM
[40]
  TGI: > 100 µM
[41]
  TGI: > 100 µM
[42]
  TGI: > 100 µM
[43]
  TGI: > 100 µM
[44]
  TGI: > 100 µM
[45]
  TGI: > 100 µM
[46]
  TGI: > 100 µM
[47]
  TGI: > 100 µM
[48]
  TGI: > 100 µM
[49]
  TGI: > 100 µM
[50]
  TGI: > 100 µM
[51]
  TGI: > 100 µM
[52]
  TGI: > 100 µM
[53]
  TGI: > 100 µM
[54]
  TGI: > 100 µM
